Values belong to the compound of their own block, whether it stands above or below them. No end group written: not given here.
Experiments:
[1] = target: T1, tyrosinase extracted from B16 melanoma cells (Mus musculus, UniProt P11344); assay: Inhibition of tyrosinase activity, L-DOPA oxidation (Example 5); assay type: biochemical; conditions: tyrosinase and L-DOPA, 37° C., 1 hour, absorbance 475 nm; vs positive control treated with tyrosinase and L-DOPA; FIG. 7
T1 construct: tyrosinase was extracted from B16 melanoma cells and used as an enzyme source; endogenous in cells; host or cells: B16 melanoma cells stimulated with alpha-MSH; cell extract
T1 sequence (P11344 19-533): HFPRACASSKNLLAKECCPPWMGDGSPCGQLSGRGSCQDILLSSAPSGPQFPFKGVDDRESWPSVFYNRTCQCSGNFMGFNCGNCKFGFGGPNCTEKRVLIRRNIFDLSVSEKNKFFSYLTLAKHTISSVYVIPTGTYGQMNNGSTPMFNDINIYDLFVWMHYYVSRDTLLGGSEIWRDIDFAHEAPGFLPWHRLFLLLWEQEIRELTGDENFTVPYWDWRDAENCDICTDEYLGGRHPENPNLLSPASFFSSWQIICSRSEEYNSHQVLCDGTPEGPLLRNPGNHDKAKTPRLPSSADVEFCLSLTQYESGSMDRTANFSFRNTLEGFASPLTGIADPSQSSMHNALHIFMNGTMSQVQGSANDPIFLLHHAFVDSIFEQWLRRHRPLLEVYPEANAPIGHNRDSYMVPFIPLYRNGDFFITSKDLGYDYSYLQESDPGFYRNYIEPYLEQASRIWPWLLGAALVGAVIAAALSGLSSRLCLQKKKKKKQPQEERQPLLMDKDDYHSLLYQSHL
Method: B16 melanoma cells were aliquoted in a 100 mm culture dish at 2×10^5 cells/dish. After 24 hours, the medium from the 100 mm culture dish was removed and treated with DMEM medium containing 10% FBS and a stimulant (α-MSH). After 48 hours, tyrosinase was extracted from B16 melanoma cells and used as an enzyme source. Using the principle that tyrosinase oxidizes L-DOPA to DOPA chrome and DOPA chrome has absorbance at 475 nm, tyrosinase and L-DOPA were incubated at 37° C. for 1 hour and absorbance was measured at 475 nm at 2 minute intervals, so that the production amount of DOPA chrome according to time was measured. The amount of changing 1 nmole of L-DOPA per minute to DOPA chrome was defined as the amount of tyrosinase activity. The tyrosinase inhibitory effect of Compound 2 was evaluated by comparing the group treated with tyrosinase and L-DOPA in combination as a positive control and the group treated with tyrosinase, L-DOPA and Compound 2 in combination.

[2] = test system: B16 melanoma cells; assay: Cytotoxicity of hydroquinone and Compound 2 by MTT assay (Example 4); assay type: cell-based; conditions: treated alone, concentration of 10 μM or less; α-MSH 100 nM 76 hours; absorbance 590 nm; FIG. 6
Method: Using B16 melanoma cells, cytotoxicity was measured by MTT assay when hydroquinone and Compound 2 were treated alone or in combination.
200 μL of B16 melanoma cells were aliquoted in a 96-well plate to 2.7×10^3 cells/well, and then cultured at 37° C., 5% CO2 incubator for 24 hours. B16 melanoma cells were treated with hydroquinone and/or Compound 2 for 2 hours under the same conditions as in Example 3.
Thereafter, α-MSH was treated at a concentration of 100 nM for 76 hours, and absorbance was measured at 590 nm by MTT assay, and the results are shown in FIG. 6.

[3] = test system: B16 melanoma cells; assay: Melanogenesis inhibition upon single or combination treatment with hydroquinone (Example 3); assay type: cell-based
Method: Using B16 melanoma cells, melanogenesis inhibition and melanosome degradation effect were confirmed upon single or combination treatment with hydroquinone and the compound of the present invention.
B16 melanoma cells were treated alone or in combination with hydroquinone and/or a compound of the present invention for 2 hours under the following conditions.
(i) Compound 2: 1, 3, 10 μM single administration
(ii) Hydroquinone: 1, 3, 10 μM single administration
(iii) Compound 2 (1, 3, 10 μM)+Hydroquinone (5 μM)
Thereafter, α-MSH was treated at a concentration of 100 nM for 76 hours.
After 72 hours, absorbance was measured at 405 nm to quantify the amount of melanin released into the medium, and the inhibition rate was calculated and shown in FIG. 5.

inhibition of tyrosinase activity [1]: inhibited the activity of tyrosinase
Compound: OC[C@H]1O[C@@H](Oc2ccc(O)cc2)[C@H](O)[C@@H](O)[C@@H]1O [Arbutin]

IC50 ([3]; Mus musculus, B16, single treatment, based on the amount of melanogenesis in the positive control group (α-MSH 100 nM)): 7.7 µM
Compound: Oc1ccc(O)cc1 [hydroquinone, Benzene-1,4-diol]
cell viability / cytotoxicity (MTT assay) [2]: no cytotoxicity | melanogenesis inhibition and melanosome degradation effect ([3]; treated alone, 1, 3, 10 μM, α-MSH 100 nM, FIG. 5): dose-dependently increased

Compound: α-melanocyte stimulating hormone (SYSMEHFRWGKPV; ends and bridges not checked; UniProt P01189 138-150, looked up) [α-MSH, agonist that stimulates melanogenesis; used as the stimulant / positive control]
increase of the amount of melanin ([3]; positive control treated with α-MSH 100 nM): 16.5 times
